According to patent US9732075B2, “Benzimidazole-proline derivatives” (IDORSIA PHARMACEUTICALS LTD, priority 2012, dated 2017):

How the values were obtained:
[1] = molecular target: human orexin-1 receptor (Homo sapiens (Human), UniProt O43613); assay: In vitro assay: intracellular calcium measurements (FLIPR), antagonistic activity; format: cell-based; settings: CHO cells expressing human orexin-1 receptor, orexin-A agonist, geometric mean, read-out: IC50 Ox1
Outline: (§1)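 IC50s are geometric means, possibly reference-normalized, from FLIPR calcium peaks in CHO cells bearing human orexin-1 or orexin-2 receptor. Fluo-4 AM/probenecid-loaded cells received antagonist for 120 min before challenge with orexin-A (final 3 nM, ~EC70), with responses compared against vehicle controls.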

[2] = molecular target: human orexin-2 receptor (Homo sapiens (Human), UniProt O43614); assay: as above; format: cell-based; settings: CHO cells expressing human orexin-2 receptor, orexin-A agonist, geometric mean, read-out: IC50 Ox2
Outline: as §1

human orexin-2 receptor, sequence (O43614 whole entry): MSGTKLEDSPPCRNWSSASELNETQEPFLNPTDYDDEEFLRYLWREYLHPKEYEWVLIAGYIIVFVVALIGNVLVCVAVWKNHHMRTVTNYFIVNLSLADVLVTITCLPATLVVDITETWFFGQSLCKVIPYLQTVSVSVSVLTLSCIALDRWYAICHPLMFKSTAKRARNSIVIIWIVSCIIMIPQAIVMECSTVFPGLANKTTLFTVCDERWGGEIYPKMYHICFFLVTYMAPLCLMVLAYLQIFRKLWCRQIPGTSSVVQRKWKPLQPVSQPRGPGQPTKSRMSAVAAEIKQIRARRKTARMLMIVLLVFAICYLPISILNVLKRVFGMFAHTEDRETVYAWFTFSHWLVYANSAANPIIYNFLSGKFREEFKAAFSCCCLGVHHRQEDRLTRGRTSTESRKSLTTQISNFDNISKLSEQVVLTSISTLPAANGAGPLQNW
human orexin-1 receptor, sequence (O43613 whole entry): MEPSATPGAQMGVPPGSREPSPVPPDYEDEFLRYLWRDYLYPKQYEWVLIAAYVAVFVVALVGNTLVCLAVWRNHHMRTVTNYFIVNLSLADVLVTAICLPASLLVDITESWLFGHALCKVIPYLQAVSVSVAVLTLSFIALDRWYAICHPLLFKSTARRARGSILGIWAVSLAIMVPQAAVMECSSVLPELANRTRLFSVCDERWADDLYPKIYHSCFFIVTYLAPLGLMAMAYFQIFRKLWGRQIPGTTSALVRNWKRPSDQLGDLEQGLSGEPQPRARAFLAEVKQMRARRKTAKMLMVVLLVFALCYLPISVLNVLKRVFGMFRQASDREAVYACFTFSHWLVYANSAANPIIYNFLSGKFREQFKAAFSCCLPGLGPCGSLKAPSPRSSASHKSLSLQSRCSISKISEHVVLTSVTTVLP

Row | IC50 [1] [nM] | IC50 [2] [nM] | SMILES
1 | 23 | 37 | Cc1ccc(-c2cccc(C#N)c2)c(C(=O)N2CCC[C@@]2(C)c2nc3cc(C(F)(F)F)c(Cl)cc3[nH]2)c1 [Ex. 5.159]
2 | 184 | 6 | C=C1C[C@@H](c2nc3cccc(C)c3[nH]2)N(C(=O)c2nc(C)sc2-c2ccc(OC)nc2)C1 [Ex. 6.103]
3 | 53 | 1160 | Cc1cccc(-c2nc(C(=O)N3CCC[C@@]3(C)c3nc4cc(Cl)c(C(F)(F)F)cc4[nH]3)c(-c3ccc(F)cc3)s2)c1 [Ex. 5.287]
4 | 115 | 66 | C=C1C[C@@H](c2nc3cc(Cl)c(C(F)(F)F)cc3[nH]2)N(C(=O)c2ccccc2-n2cccn2)C1 [Ex. 6.188]
5 | 43 | 61 | Cc1ccc(-c2ccc(C)cc2C(=O)N2CCC[C@@]2(C)c2nc3cc(C)c(C)cc3n2CC2CC2)cc1 [Ex. 7.39]
6 | 4 | 4 | C=C1CC(c2nc3c(C)cc(C)cc3[nH]2)N(C(=O)c2cc(C)sc2-c2ccc(C)c(C)c2)C1 (stereo not drawn) [Ex. 6.76]
7 | 23 | 84 | Cc1ccc(-n2nccn2)c(C(=O)N2CCC[C@@]2(C)c2nc3c(Br)cccc3[nH]2)c1 [Ex. 5.18]
8 | 22 | 31 | Cc1ccc(-c2ncccn2)c(C(=O)N2CCC[C@@]2(C)c2nc3cccc(C)c3[nH]2)c1 [Ex. 5.278]
9 | 94 | 85 | COc1cc(C(=O)N2CCC[C@@]2(C)c2nc3cc(OC)c(OC)cc3[nH]2)c(-n2nccn2)cc1OC [Ex. 5.86]
10 | 330 | 7 | C=C1C[C@@H](c2nc3cc(C(C)(C)C)ccc3[nH]2)N(C(=O)c2ccccc2-n2nccn2)C1 [Ex. 6.162]
11 | 34 | 380 | Cc1ccc(-c2ncccn2)c(C(=O)N2CCC[C@@]2(C)c2nc3cc(OC(F)(F)F)ccc3[nH]2)c1 [Ex. 5.281]
12 | 29 | 4660 | Cc1cc(F)ccc1-c1nc(C(=O)N2CCC[C@@]2(C)c2nc3c(C)c(Cl)ccc3[nH]2)c(-c2ccc(F)cc2)s1 [Ex. 5.259]
13 | 42 | 84 | Cc1ccc(-n2cccn2)c(C(=O)N2CCC[C@@]2(C)c2nc3cc(C)c(C)cc3[nH]2)c1 [Ex. 5.59]

Continued, compound first:

Row | SMILES | IC50 [1] [nM] | IC50 [2] [nM]
14 | CSc1ccc2nc([C@@H]3CCCN3C(=O)c3nccnc3-c3cc(C)cc(F)c3)[nH]c2c1 [Ex. 1.45] | 501 | 109
15 | Cc1cc2nc([C@@H]3[C@@H](C)CCN3C(=O)c3ccccc3-n3nccn3)[nH]c2cc1C [Ex. 4.85] | 7 | 43
16 | Cc1c(Cl)ccc2[nH]c([C@@H]3[C@@H](C)CCN3C(=O)c3cc(F)ccc3-c3ncccn3)nc12 [Ex. 4.175] | 14 | 249
17 | Cc1ccc2[nH]c([C@@H]3[C@@H](C)CCN3C(=O)c3nc(C)sc3-c3cccc(Cl)c3)nc2c1 [Ex. 4.3] | 8 | 1350
18 | Cc1nc(C(=O)N2CCCC2c2nc3cc(Cl)ccc3[nH]2)c(-c2cccc(Cl)c2)s1 (stereo not drawn) [Ex. 1.97] | 95 | 314
19 | CO[C@@H]1C[C@@H](c2nc3ccc(Cl)c(C)c3[nH]2)N(C(=O)c2cc(C(F)(F)F)ccc2-n2nccn2)C1 [Ex. 3.17] | 368 | 51
20 | COc1cc2nc([C@@H]3[C@@H](C)CCN3C(=O)c3c(-n4nccn4)ccc(C)c3F)[nH]c2cc1OC [Ex. 4.44] | 38 | 246
21 | Cc1nc(C(=O)N2CC[C@H](C)[C@H]2c2nc3cc(C)c(C)cc3[nH]2)c(-c2ccc(Cl)cc2)s1 [Ex. 4.87] | 4 | 2080
22 | Cc1ccc(-c2nc(C)sc2C(=O)N2CC[C@H](C)[C@H]2c2nc3c(C)cc(Cl)cc3[nH]2)cc1 [Ex. 4.96] | 31 | 996
23 | Cc1c(Cl)ccc2[nH]c([C@@H]3[C@@H](C)CCN3C(=O)c3cc(F)ccc3-c3ccccn3)nc12 [Ex. 4.165] | 20 | 968
24 | Cc1ccc(-n2nccn2)c(C(=O)N2CCC[C@@]2(C)c2nc3cc(C(F)(F)F)ccc3[nH]2)c1 [Ex. 5.9] | 8 | 81
